# Laboratory results from patent US8361967B2, “Beta sheet inhibiting peptides for preventing and/or treating Alzheimer's Disease” (Tianjin Medical University, priority 2008, dated 2013).
# No end group written: not given here.
# Tests used:
# [1] = system: APP 695 transgenic mice; assay: Immunohistochemical staining of hippocampal CA1 neurons (anti-APP N-terminal and anti-Aβ antibody) in APP 695 transgenic mice; format: in vivo; details: intracerebroventricular 3 μl of 40 μmol/L daily for 10 days
# Description: (§1) Experimental animals: thirty APP 695 transgenic mice of nine-month-old and ten C57BL/6J mice which are matched in genetic background and age, were all purchased from the experimental animal research center of Peking Union Medical College, Chinese Academy of Medical Sciences.
# (§2) Animal grouping and model preparation: the thirty APP 695 transgenic mice were randomly divided into model group of 15 mice and the polypeptide-injected group of 15 mice. Ten C57BL/6J mice were used as a normal control group. For the polypeptide-injected group, the animals were received intracerebroventricular injection of 3 μl of saline solution containing H102 of 40 μmol/L each time. For the control group and model group, the animals were received intracerebroventricular injection of 3 μl of normal saline solution each time. The injection was carried out daily for 10 days. All animals were kept in the same conditions in SPF-grade mice room in the experimental animal research center of Tianjin Medical University
# (§3) The animals were anaesthetized intraperitoneally by 10% chloral hydrate at a dose of 400 mg/Kg weight. The animals were fixed on a brain stereotaxic frame, and the hair was cut off. After disinfection with Anerdian, the skin was incised along the midline of the head for about 1 cm. The periosteum was stripped to expose the bone marks. […]
# [2] = system: APP 695 transgenic mice; assay: Congo Red staining of amyloid plaques in temporal cortex and hippocampus of APP 695 transgenic mice; format: in vivo; details: intracerebroventricular 3 μl of 40 μmol/L daily for 10 days
# Description: as §1, §2, §3
# [3] = molecular target: T1, Aβ1-42 peptide (Homo sapiens, UniProt P05067); details: for ThT fluorescence intensity over time vs Aβ1-42 alone: 44.30 μmol/L with Aβ1-42 11.07 μmol/L, 37° C., 12 h to 7 d; for dose dependence of effect on Aβ fibril formation / most effective concentration for inhibition of Aβ fibril formation: 10-100 μmol/L with Aβ1-42 11.07 μmol/L; for dose dependence of effect on Aβ fibril formation / effect on Aβ1-42 aggregation and fibril formation (ThT, FIG. 2) / most effective concentration for inhibition of Aβ fibril formation / Inhibition (%) of Aβ aggregation: 37° C. for 24 h; for effect on Aβ1-42 aggregation and fibril formation (ThT, FIG. 2) / Inhibition (%) of Aβ aggregation: Aβ1-42 11.07 μmol/L, test substance 44.30 μmol/L; for most effective concentration for inhibition of Aβ fibril formation: dose-effect; for Inhibition (%) of Aβ aggregation: Aβ1-42 alone = 100% fluorescence
# Protocol: 2. […] Each solution was incubated at 37° C. for 24 h, and 10 μl was taken out from each group and added into 990 μl of 3.0 μmol/L ThT phosphate buffer. ThT fluorescence intensity was measured at the excitation wavelength of 453 nm and emission wavelength of 478˜486 nm.
# 3. The dose-effect and time-effect relationships of the polypeptides of the invention on Aβ1-42: polypeptide H102 was formulated in PBS (as described above) to obtain a series of concentrations, and Aβ1-42 was added into the solutions to the concentration of 11.07 μmol/L. The resulted solutions were incubated at 37° C. for 24 hours, and samples were taken and measured for ThT fluorescence intensity, in order to determine the dose-effect relationship of the polypeptides of the invention on Aβ1-42. Solutions containing H102 of 44.30 μmol/L and Aβ1-42 of 11.07 μmol/L, or Vitamin E of 44.30 μmol/L and Aβ1-42 of 11.07 μmol/L, respectively, were incubated at 37° C. Samples were taken and measured for ThT fluorescence intensity at the time points of 12 hours (12 h), 1 day (1 d), 3 days (3 d), 5 days (5 d) and 7 days (7 d) after the incubation, in order to determine the time-effect relationships of various polypeptides on Aβ1-42.
# [4] = molecular target: T1, Aβ1-42 peptide; assay: Electron microscopy of Aβ1-42 fibril formation; format: biochemical; design: Reagents: Aβ1-42 (purity >98%); purchased Sigma-Aldrich, Inc; details: peptide 44.30 μmol/L with Aβ1-42 11.07 μmol/L, 37° C., 5 days; for length of formed Aβ fibrils: Aβ alone about 0.5 to 5 μm; for diameter of formed Aβ fibrils: Aβ alone about 8 to 10 nm
# Protocol: 4. […] Samples of 5 μl were taken from each group, dropped onto a 300-mesh deionized copper mesh with carbon support film, and left to stand at room temperature for 15 min. The samples were negatively stained in dark by 2% uranyl acetate for 2 min. After drying, the samples were observed under a transmission electron microscope.
# [5] = system: human neuroblastoma SH-SY5Y cells; assay: Cytotoxicity test (MTT): viability of SH-SY5Y cells incubated with Aβ1-42; format: cell-based; details: 72 hours
# Protocol: 5. Cytotoxicity test: a commonly-used cell line, human neuroblastoma SH-SY5Y, was used in the assay of cytotoxcity, which was purchased from Xuanwu Hospital of Capital Medical University and cultured in MEM medium (supplemented with 10% (v/v) fetal bovine serum) by conventional methods, in a 37° C., 5% CO2 incubator. The cell line was subcultured once every 5 days. When the SH-SY5Y cells grew stably in the logarithmic phase, the cells were inoculated into a 96 well plates (Costar) in a density of 1.0×10^4/ml, with 200 μl of medium added per well. After 24 hours, the medium was replaced by serum-free medium, and Aβ1-42 was added to the concentration of 5 μmol/L. The wells were divided into several groups. […] At 72 hours after the addition of the polypeptides, 20 μl of 3-(4,5-dimethyl-2-thiazolyl)-2,5-diphenyltetrazole bromide (MTT) (5 mg/ml) was added into each well, and the plate was incubated at 37° C. for 4 hours. Then the original culture medium was discarded, and 200 μl of DMSO was added into each well. The plate was left to stand for 10 min and then shaken for 1 min, allowing the Formazane particles to be completely dissolved. Then the optical density (OD) at 492 nm was measured on an automatic microplate reader.
Substance,amount of Aβ1-42 positive cells in brain CA1 area vs model group [1],amyloid plaques (Congo red) vs transgenic model group [2],"T1/2, time point at which the fluorescence intensity reaches the half-peak [3]",ThT fluorescence intensity over time vs Aβ1-42 alone [3],dose dependence of effect on Aβ fibril formation [3],"effect on Aβ1-42 aggregation and fibril formation (ThT, FIG. 2) [3]",most effective concentration for inhibition of Aβ fibril formation [3],length of formed Aβ fibrils [4] [μm],diameter of formed Aβ fibrils [4] [nm],"effect on viability of SH-SY5Y cells ([5]; 10, 20 and 40 μmol/L with Aβ1-42 5 μmol/L)",optimal concentration to improve the viability of cells ([5]; Aβ1-42 5 μmol/L) [µmol/L],Inhibition (%) of Aβ aggregation [3] [%]
HKQLPFFEED [H102],much lower than that of the model group,much lower in the number and size,fourth day,significantly weaker at each time point,dose-dependent,remarkably inhibit,about 20 μmol/L,0.3 to 3,3 to 6,most effective to improve the viability of cells,20,
"Leu-Pro-Phe-Phe-Asp (LPFFD; printed: Leu-Pro-Phe-Phe-Asp) [L5, reference compound]",,,,,,,,0.3 to 5,4 to 8,,,25.74
Vitamin E,,,fourth day,significantly weaker at each time point,dose-dependent,remarkably inhibit,about 20 μmol/L,,,,,24.85
